Test results from patent US20240360177A1, “PEPTIDES WITH ANTIMICROBIAL ACTIVITIES” (priority 2021, published 2024).
pEC50: −log10 of the molar value. Values after ≈ are worked out from the molar mass of the structure shown. Read-outs that look alike come from different tables or passages of the source. Non-standard residues stand in square brackets, D forms with d. Residues, ends and D or L forms follow the SMILES beside them. Ahp = NCCCCCCC(=O)O; Ava = NCCCCC(=O)O

What was measured:
human red blood cells = format: cell-based; settings: PBS, 37° C., 1 hr
Experimental: Hemolysis is a liability for many other cationic peptides which prevented their utility to treat systemic infections. The hemolytic potential of the peptides was tested using red blood cells collected from fresh human blood after centrifugation at room temperature and washed in phosphate buffered saline (pH 7.4) three times and then incubated in phosphate buffered saline (PBS) at 37° C. for 1 hr with the peptides at concentrations of 3-300 μg/mL. Triton-X100 was used as the positive control while the vehicle (PBS) was used as the negative control. Amphotericin B and melittin, both known to be hemolytic were used as reference compounds. Following incubation, the mixture was centrifuged at room temperature, and the supernatant was separated and analyzed for light absorbance at a single wavelength of 410 nm. The background absorbance reading from the negative control was subtracted from all samples. The Triton-X-100 sample was used to represent 100% lysis. All test compound and positive control samples were normalized to this value to determine the percent lysis caused by the test compounds and the positive controls at each concentration.

[1] = tested on: Trichophyton rubrum ATCC MYA-4438
C. glabrata [2] = tested on: C. glabrata
C. parapsilosis [3] = tested on: C. parapsilosis
C. tropicalis [4] = tested on: C. tropicalis
C. krusei [5] = tested on: C. krusei
C. dubliniensis [6] = settings: ATCC MYA-578; 24 hrs
C. gattii [7] = tested on: C. gattii
C. auris [8] = tested on: C. auris
[9] = tested on: Microsporum gypseum ATCC 14683
Scedosporium spp. = settings: N = 2 strains; 72 hrs
[10] = tested on: Epidermophyton floccosum ATCC 52066
C. neoformans [11] = tested on: C. neoformans
C. albicans [12] = tested on: C. albicans
HepG2 cells [13] = tested on: HepG2 cells
C. neoformans [14] = assay: microbe, parasite or virus in culture; settings: Cryptococcus neoformans, ATCC90112, 72 h, read-out: MIC C. neoformans
[15] = tested on: Trichophyton rubrum ATCC MYA-4438; assay: microbe, parasite or virus in culture; settings: read-out: MIC Trichophyton rubrum
C. parapsilosis [16] = assay: microbe, parasite or virus in culture; settings: Lodderomyces parapsilosis, ATCC22019, 24 h, read-out: MIC C. parapsilosis
C. krusei [17] = assay: microbe, parasite or virus in culture; settings: Pichia kudriavzevii, 24 h, read-out: MIC C. krusei
[18] = tested on: Epidermophyton floccosum ATCC 52066; assay: microbe, parasite or virus in culture; settings: ATCC52066, read-out: MIC Epidermophyton floccosum
C. albicans [19] = assay: microbe, parasite or virus in culture; settings: Candida albicans, ATCC90028, 24 h, read-out: MIC C. albicans
C. auris [20] = assay: microbe, parasite or virus in culture; settings: Candidozyma auris, 24 h, read-out: MIC C. auris
C. glabrata [21] = assay: microbe, parasite or virus in culture; settings: Nakaseomyces glabratus, ATCC90030, 24 h, read-out: MIC C. glabrata
C. tropicalis [22] = assay: microbe, parasite or virus in culture; settings: Candida tropicalis, ATCC90874, 24 h, read-out: MIC C. tropicalis
[23] = tested on: Microsporum gypseum ATCC 14683; assay: microbe, parasite or virus in culture; settings: Nannizzia gypsea, ATCC14683, read-out: MIC Microsporum gypseum
C. gattii [24] = assay: microbe, parasite or virus in culture; settings: Cryptococcus gattii, 72 h, read-out: MIC C. gattii
C. dubliniensis [25] = assay: microbe, parasite or virus in culture; settings: Candida dubliniensis, 24 h, read-out: MIC C. dubliniensis
[26] = tested on: Staphylococcus aureus ATCC 29213; format: cell-based
[27] = tested on: Salmonella senftenberg CDC 127; format: cell-based
[28] = tested on: Enterococcus faecium ATCC 700221; settings: CAMHB
[29] = tested on: Mycobacterium smegmatis ATCC 700084; format: cell-based; settings: ATCC 700084, 48 h
[30] = tested on: Escherichia coli ATCC 25922; format: cell-based
[31] = tested on: Pseudomonas aeruginosa ATCC 27853; format: cell-based
[32] = tested on: Klebsiella pneumoniae ATCC 13883; format: cell-based
[33] = tested on: Shigella sonnei MMX 10772; assay: Antibacterial broth microdilution MIC, Shigella sonnei; format: cell-based; settings: CAMHB
HepG2 cells [34] = assay: Cytotoxicity in HepG2 cells, intracellular ATP assay; settings: Homo sapiens, HepG2, read-out: EC50 in HepG2 ATP assay, internal control, range across studies

Compound | MIC Range Fusarium spp. (Fusarium spp.; N = 3 strains, 48 hrs) [µg/mL] | MIC Range Scedosporium spp. (Scedosporium spp.) [µg/mL] | MIC (C. neoformans [14]) [µg/mL] | MIC [15] [µg/mL] | MIC (C. parapsilosis [16]) [µg/mL] | MIC (C. krusei [17]) [µg/mL] | MIC [18] [µg/mL] | MIC (C. albicans [19]) [µg/mL] | MIC (C. auris [20]) [µg/mL] | MIC (C. glabrata [21]) [µg/mL] | MIC (C. tropicalis [22]) [µg/mL] | MIC [23] [µg/mL] | MIC (C. gattii [24]) [µg/mL] | MIC Staphylococcus aureus [26] [µg/mL] | MIC Range Fusarium spp. (Fusarium spp.; 48 h) [µg/mL] | MIC C. glabrata (C. glabrata [2]; 24 h) [µg/mL] | MIC C. parapsilosis (C. parapsilosis [3]; 24 h) [µg/mL] | MIC C. tropicalis (C. tropicalis [4]; 24 h) [µg/mL] | MIC Salmonella senftenberg [27] [µg/mL] | MIC Enterococcus faecium [28] [µg/mL] | further results
C[C@@H]1[C@H](O)[C@@H](C)/C=C/C=C/C=C/C=C/C=C/C=C/C=C/[C@H](O[C@@H]2O[C@H](C)[C@@H](O)[C@H](N)[C@@H]2O)C[C@@H]2O[C@](O)(C[C@@H](O)C[C@@H](O)[C@H](O)CC[C@@H](O)C[C@@H](O)CC(=O)O[C@H]1C)C[C@H](O)[C@H]2C(=O)O [AMB, amphotericin B, reference compound] | 1 (≈ 1.08 µM) | 1 to 2 | – | – | – | – | – | – | – | – | – | – | – | – | – | – | – | – | – | – | EC50 hemolysis (50% lysis) (human red blood cells): 6.95 µg/mL (≈ 7.52 µM); MIC Trichophyton rubrum ([1]; 4-6 days): ≤0.06 µg/mL; MIC C. glabrata (C. glabrata [2]; ATCC 90030, 24 hrs): 0.5 µg/mL (≈ 0.541 µM); MIC C. parapsilosis (C. parapsilosis [3]; ATCC 22019, 24 hrs): 0.25 µg/mL (≈ 0.271 µM); MIC C. tropicalis (C. tropicalis [4]; ATCC 90874, 24 hrs): 0.5 µg/mL (≈ 0.541 µM); MIC C. krusei (C. krusei [5]; MMX 7135, 24 hrs): 0.5 µg/mL (≈ 0.541 µM); MIC C. dubliniensis (C. dubliniensis [6]): 0.25 µg/mL (≈ 0.271 µM); MIC C. gattii (C. gattii [7]; ATCC MYA-4093, 72 hrs): 0.5 µg/mL (≈ 0.541 µM); MIC C. auris (C. auris [8]; CDC 386, 24 hrs): 1 µg/mL (≈ 1.08 µM); MIC Microsporum gypseum ([9]; 4-6 days): 0.5 µg/mL (≈ 0.541 µM); MIC Epidermophyton floccosum ([10]; 4-6 days): 0.12 µg/mL (≈ 0.13 µM); MIC C. neoformans (C. neoformans [11]; ATCC 90112, 72 hrs): 0.25 µg/mL (≈ 0.271 µM); MIC C. albicans (C. albicans [12]; ATCC 90028 or 90029, 24 hrs): 0.5 µg/mL (≈ 0.541 µM); EC50 cytotoxicity in HepG2, positive controls across studies (HepG2 cells [13]): 5.79 to 14.13 µg/mL
CC[C@H](C)C[C@H](C)CCCCCCCCC(=O)N[C@H]1C[C@@H](O)[C@@H](NCCN)NC(=O)[C@@H]2[C@@H](O)CCN2C(=O)[C@H]([C@H](O)CCN)NC(=O)[C@H]([C@H](O)[C@@H](O)c2ccc(O)cc2)NC(=O)[C@@H]2C[C@@H](O)CN2C(=O)[C@H]([C@@H](C)O)NC1=O [CAS, caspofungin] | 32 (≈ 29.3 µM) | 32 (≈ 29.3 µM) | 16 (≈ 14.6 µM) | 2 (≈ 1.83 µM) | 0.25 (≈ 0.229 µM) | 0.25 (≈ 0.229 µM) | 0.06 (≈ 0.0549 µM) | 0.03 (≈ 0.0274 µM) | 0.06 (≈ 0.0549 µM) | 0.06 (≈ 0.0549 µM) | 0.03 (≈ 0.0274 µM) | 0.12 (≈ 0.11 µM) | 16 (≈ 14.6 µM) | – | – | – | – | – | – | – | –
OC(Cn1cncn1)(Cn1cncn1)c1ccc(F)cc1F [FLC, fluconazole] | >32 | – | 4 (≈ 13.1 µM) | 0.5 (≈ 1.63 µM) | 2 (≈ 6.53 µM) | 8 (≈ 26.1 µM) | 1 (≈ 3.27 µM) | 0.25 (≈ 0.816 µM) | > 32 | 4 (≈ 13.1 µM) | 0.25 (≈ 0.816 µM) | 2 (≈ 6.53 µM) | 8 (≈ 26.1 µM) | – | – | – | – | – | – | – | MIC (C. dubliniensis [25]): 0.5 µg/mL (≈ 1.63 µM)
N=C(N)NCCC[C@@H](N)C(=O)N[C@@H](CCCNC(=N)N)C(=O)N[C@H](CCCNC(=N)N)C(=O)NCCCCCCC(=O)N[C@H](CCCNC(=N)N)C(=O)N[C@@H](CCCNC(=N)N)C(=O)N[C@H](CCCNC(=N)N)C(=O)NCCCCC(=O)N[C@H](CCCNC(=N)N)C(=O)N[C@@H](CCCNC(=N)N)C(=O)N[C@H](CCCNC(=N)N)C(=O)N[C@@H](CCCNC(=N)N)C(=O)NCCCCC(=O)N[C@H](CCCNC(=N)N)C(=O)N[C@@H](CCCNC(=N)N)C(=O)N[C@H](CCCNC(=N)N)C(=O)N[C@@H](CCCNC(=N)N)C(=O)N[C@@H](CS)C(=O)O [SEQ ID NO: 5, rRr-(Ahp)-rRr-(Ava)-rRrR-(Ava)-rRrR-Cys] (H-[dR]R[dR][Ahp][dR]R[dR][Ava][dR]R[dR]R[Ava][dR]R[dR]RC-OH) | – | – | – | – | – | – | – | – | – | – | – | – | – | 8 (≈ 3.04 µM) | 0.5 to 4 | 0.5 (≈ 0.19 µM) | 0.25 (≈ 0.0949 µM) | 0.25 (≈ 0.0949 µM) | 16 (≈ 6.08 µM) | 16 (≈ 6.08 µM) | MIC Trichophyton rubrum [1]: 2 µg/mL (≈ 0.76 µM); MIC C. krusei (C. krusei [5]; 24 h): 1 µg/mL (≈ 0.38 µM); MIC C. gattii (C. gattii [7]; 72 h): 0.5 µg/mL (≈ 0.19 µM); MIC C. auris (C. auris [8]; 24 h): 0.25 µg/mL (≈ 0.0949 µM); MIC Microsporum gypseum [9]: 64 µg/mL (≈ 24.3 µM); MIC Epidermophyton floccosum [10]: 16 µg/mL (≈ 6.08 µM); MIC Mycobacterium smegmatis [29]: 2 µg/mL (≈ 0.76 µM); MIC C. neoformans (C. neoformans [11]; 72 h): 1 µg/mL (≈ 0.38 µM); MIC Escherichia coli [30]: 16 µg/mL (≈ 6.08 µM); MIC Pseudomonas aeruginosa [31]: 32 µg/mL (≈ 12.2 µM); MIC C. albicans (C. albicans [12]; 24 h): 1 µg/mL (≈ 0.38 µM)
N=C(N)NCCC[C@H](NC(=O)[C@@H](CCCNC(=N)N)NC(=O)[C@H](CCCNC(=N)N)NC(=O)[C@@H](CCCNC(=N)N)NC(=O)CCCCNC(=O)[C@H](CCCNC(=N)N)NC(=O)[C@@H](CCCNC(=N)N)NC(=O)[C@H](CCCNC(=N)N)NC(=O)[C@@H](CCCNC(=N)N)NC(=O)CCCCNC(=O)[C@@H](CCCNC(=N)N)NC(=O)[C@H](CCCNC(=N)N)NC(=O)[C@@H](CCCNC(=N)N)NC(=O)CCCCCCNC(=O)[C@@H](CCCNC(=N)N)NC(=O)[C@H](CCCNC(=N)N)NC(=O)[C@@H](CCCNC(=N)N)NC(=O)[C@@H](N)CS)C(=O)O [SEQ ID NO: 6, Cys-rRr-(Ahp)-rRr-(Ava)-rRrR-(Ava)-rRrR] (H-C[dR]R[dR][Ahp][dR]R[dR][Ava][dR]R[dR]R[Ava][dR]R[dR]R-OH) | – | – | – | – | – | – | – | – | – | – | – | – | – | 8 (≈ 3.04 µM) | 0.25 to 0.5 | 0.5 (≈ 0.19 µM) | 2 (≈ 0.76 µM) | 1 (≈ 0.38 µM) | 16 (≈ 6.08 µM) | 16 (≈ 6.08 µM) | MIC Klebsiella pneumoniae [32]: 16 µg/mL (≈ 6.08 µM); MIC C. krusei (C. krusei [5]; 24 h): 8 µg/mL (≈ 3.04 µM); MIC C. gattii (C. gattii [7]; 72 h): 1 µg/mL (≈ 0.38 µM); MIC C. auris (C. auris [8]; 24 h): 4 µg/mL (≈ 1.52 µM); MIC Shigella sonnei [33]: 16 µg/mL (≈ 6.08 µM); MIC Mycobacterium smegmatis [29]: 1 µg/mL (≈ 0.38 µM); MIC Escherichia coli [30]: 16 µg/mL (≈ 6.08 µM); MIC Pseudomonas aeruginosa [31]: 16 µg/mL (≈ 6.08 µM); MIC C. albicans (C. albicans [12]; 24 h): 8 µg/mL (≈ 3.04 µM)
C=C(C)[C@H]1Cc2c(ccc3c2O[C@@H]2COc4cc(OC)c(OC)cc4[C@@H]2C3=O)O1 [rotenone, reference compound] | – | – | – | – | – | – | – | – | – | – | – | – | – | – | – | – | – | – | – | – | pEC50 (HepG2 cells [34]): 6.23 to 6.89
